Test results as given in ChEMBL document CHEMBL1201862, “PubChem BioAssay data set” (2004).
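Exposure lasted 48 hours, with cells grown in 96-well plates and compounds tested at five concentrations. At the GI50, growth is halved.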 Active and inactive are the calls of the source. Cut-off read from the data, not from the text of the source: active = GI50 up to about 1.1 µM and inactive = higher.

Columns and labels:
Assay in all cases: NCI anticancer screen, dose series, 48 h
COLO 205 = tested on: COLO 205
Hs-578T = tested on: Hs-578T
M19-MEL = tested on: M19-MEL
HOP-92 = tested on: HOP-92
A549 = tested on: A549
T47D = tested on: T47D
PC-3 = tested on: PC-3
DU-145 = tested on: DU-145
SNB-19 = tested on: SNB-19
M14 = tested on: M14
UACC-257 = tested on: UACC-257
OVCAR-4 = tested on: OVCAR-4
NCI-H226 = tested on: NCI-H226
SK-MEL-5 = tested on: SK-MEL-5
ACHN = tested on: ACHN
DMS-273 = tested on: DMS-273
SNB-75 = tested on: SNB-75
NCI-H460 = tested on: NCI-H460
SF-539 = tested on: SF-539
UO-31 = tested on: UO-31

Compound	GI50 (COLO 205)	GI50 (Hs-578T)	GI50 (M19-MEL)	GI50 (HOP-92)	GI50 (A549)	GI50 (T47D)	GI50 (PC-3)	GI50 (DU-145)	GI50 (SNB-19)	GI50 (M14)	GI50 (UACC-257)	GI50 (OVCAR-4)	GI50 (NCI-H226)	GI50 (SK-MEL-5)	GI50 (ACHN)	GI50 (DMS-273)	GI50 (SNB-75)	GI50 (NCI-H460)	GI50 (SF-539)	GI50 (UO-31)
O=C1CCC(C(=O)O)C2=C1CCCC2 (stereo not given)	> 100 µM (inactive)	> 100 µM (inactive)	> 100 µM (inactive)	> 100 µM (inactive)	> 34 µM (inactive)	> 100 µM (inactive)	> 100 µM (inactive)	> 100 µM (inactive)	> 36.2 µM (inactive)	> 100 µM (inactive)	> 100 µM (inactive)	> 100 µM (inactive)	> 14.4 µM (inactive)	> 56.1 µM (inactive)	> 100 µM (inactive)	17.1 µM (inactive)	> 100 µM (inactive)	–	–	–
COC1=CC(=O)c2c(O)c3c(c(O)c2C1=O)C[C@](C)(O)C[C@@H]3O	1.77 µM (inactive)	18.2 µM (inactive)	0.296 µM (active)	9.48 µM (inactive)	2.93 µM (inactive)	6.98 µM (inactive)	3.4 µM (inactive)	4.11 µM (inactive)	4.92 µM (inactive)	2.6 µM (inactive)	1.99 µM (inactive)	3.72 µM (inactive)	23.9 µM (inactive)	1.33 µM (inactive)	5.15 µM (inactive)	1.57 µM (inactive)	9.42 µM (inactive)	1.65 µM (inactive)	3.08 µM (inactive)	11.4 µM (inactive)
Cc1ccc(NC(=O)C(=O)CC(=O)c2ccccc2)cc1C	> 100 µM (inactive)	–	> 100 µM (inactive)	> 100 µM (inactive)	> 100 µM (inactive)	–	–	–	> 100 µM (inactive)	> 100 µM (inactive)	> 100 µM (inactive)	> 100 µM (inactive)	> 100 µM (inactive)	> 100 µM (inactive)	> 100 µM (inactive)	56.8 µM (inactive)	> 100 µM (inactive)	> 100 µM (inactive)	> 100 µM (inactive)	> 100 µM (inactive)
CC(C)C1CC[C@@H](C)C[C@@]1(O)CC(N)=O (stereo not given in full)	> 100 µM (inactive)	–	> 100 µM (inactive)	< 0.01 µM (active)	> 100 µM (inactive)	–	–	–	> 100 µM (inactive)	> 100 µM (inactive)	> 100 µM (inactive)	> 100 µM (inactive)	> 100 µM (inactive)	> 100 µM (inactive)	> 100 µM (inactive)	> 100 µM (inactive)	66.2 µM (inactive)	> 100 µM (inactive)	> 100 µM (inactive)	> 100 µM (inactive)
N=C(N)NS(=O)(=O)c1ccc(Nc2c3ccccc3nc3c(C(=O)Nc4ccc(S(N)(=O)=O)cc4)ccc(Cl)c23)cc1	> 100 µM (inactive)	–	> 100 µM (inactive)	> 100 µM (inactive)	> 100 µM (inactive)	–	–	–	> 100 µM (inactive)	> 100 µM (inactive)	> 100 µM (inactive)	> 100 µM (inactive)	> 100 µM (inactive)	> 100 µM (inactive)	> 100 µM (inactive)	> 100 µM (inactive)	> 100 µM (inactive)	> 100 µM (inactive)	> 100 µM (inactive)	> 100 µM (inactive)
